The nature of series [1]: Toxicity in ICR mouse at 500 mg/kg, ig measured after 7 days. The format is organism-based. The conditions noted are these: in vivo, po, 168 h, time 7 day.
In series [2] the target is Free fatty acid receptor 1 (Homo sapiens, UniProt O14842). Description: Agonist activity at human FFA1 expressed in CHO cells assessed as increase in calcium level measured by Fluo-4-AM staining based FLIPR assay. The format is functional, cell-based.

Each structure is given as a SMILES string.

Free fatty acid receptor 1, sequence (O14842 whole entry): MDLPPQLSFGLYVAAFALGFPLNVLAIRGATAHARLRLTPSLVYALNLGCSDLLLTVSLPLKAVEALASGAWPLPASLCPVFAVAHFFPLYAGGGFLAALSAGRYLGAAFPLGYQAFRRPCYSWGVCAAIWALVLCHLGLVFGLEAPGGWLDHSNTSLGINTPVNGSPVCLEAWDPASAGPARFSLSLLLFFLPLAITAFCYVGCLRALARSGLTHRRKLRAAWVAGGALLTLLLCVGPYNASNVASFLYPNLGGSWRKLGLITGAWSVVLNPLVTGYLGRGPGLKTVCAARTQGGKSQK

In the case of `COc1ccc2cc(-c3cccc(COc4ccc(OCC(=O)O)c(F)c4)c3)ccc2c1`, in series [1], the Activity result is listed as “Non-Toxic”.

As usually defined, the EC50 is the concentration that produces a half-maximal response. Regarding `Cc1cc(OCCCS(C)(=O)=O)ccc1-c1cccc(COc2ccc(OCC(=O)O)c(F)c2)c1`, the EC50 in series [2] was found to be 61 nM.

These data come from ChEMBL document CHEMBL5154704 (Bioorg Med Chem, 2022).
